Laboratory results published in patent US20070128217A1 (priority 2003, published 2007).

Key:
[1] = system: control sera (pooled serum of ten healthy LUMC hospital workers; commercial negative donor pooled serum from the Dutch bloodbank); format: binding, human; parameters: Binding of Control serum LUMC to linear peptides / Binding of Control serum Blood-bank to linear peptides / Binding of Control serum LUMC to looped peptides / Binding of Control Serum Blood-Bank to Looped peptides / Binding of Control serum LUMC to linear peptides of the protein M of SARS-CoV Urbani / Binding of Control serum Blood-bank to linear peptides of the protein M of SARS-CoV Urbani / Binding of Control serum LUMC to looped peptides of the protein M of SARS-CoV Urbani / Binding of Control Serum Blood-Bank to Looped peptides of the protein M of SARS-CoV Urbani: unit not given here
[2] = system: rabbit serum obtained by immunizing a rabbit with the SARS-CoV strain Frankfurt 1; format: binding; parameters: Binding of a rabbit serum to linear peptides / Binding of a rabbit serum to looped peptides / Rabbit serum linear peptides / Rabbit serum looped peptides / Binding of a rabbit serum to linear peptides of protein N of SARS-CoV Urbani (Rabbit serum linear peptides) / Binding of a rabbit serum to looped/cyclic peptides of protein N of SARS-CoV Urbani (Rabbit serum looped peptides): unit not given here
[3] = system: recombinant human anti-SARS-CoV antibody 03-018; format: binding; parameters: Binding of antibody 03-018 to linear peptides of the N protein of SARS-CoV Urbani / Binding of antibody 03-018 to looped/cyclic peptides of the N protein of SARS-CoV Urbani: unit not given here
[4] = system: antibodies in sera from SARS patients (sera 1a, 1b, 2, 6, 37, 62, London, SARS-yellow, SARS-green); format: binding, human; parameters: Binding of serum 6 to linear peptides of protein X1 of SARS-CoV Urbani / Binding of serum 37 to linear peptides of protein X1 of SARS-CoV Urbani / Binding of serum 6 to looped/cyclic peptide (PEPSCAN-ELISA) / Binding of serum 37 to looped/cyclic peptide (PEPSCAN-ELISA) / Binding of serum 37 to looped/cyclic peptides of protein X1 of SARS-CoV Urbani / Binding of serum 6 to linear peptides of protein X2 / Binding of serum 37 to linear peptides of protein X2 / Binding of serum 37 to looped/cyclic peptides of protein X2 of SARS-CoV Urbani / Binding of serum 6 to linear peptides of protein M of SARS-CoV Urbani / Binding of serum 37 to linear peptides of protein M of SARS-CoV Urbani / Binding of serum 6 to looped/cyclic peptides of protein M of SARS-CoV Urbani / Binding of serum 37 to looped/cyclic peptides of protein M of SARS-CoV Urbani / Binding of serum 6 to linear peptides of protein X3 of SARS-CoV Urbani / Binding of serum 37 to linear peptides of protein X3 of SARS-CoV Urbani / Binding of serum 37 to looped/cyclic peptides of protein X3 of SARS-CoV Urbani / Binding of serum 6 to linear peptides of protein X4 of SARS-CoV Urbani / Binding of serum 37 to linear peptides of protein X4 of SARS-CoV Urbani / Binding of serum 37 to looped/cyclic peptides of protein X4 of SARS-CoV Urbani / Binding of serum 6 to linear peptides of protein X5 of SARS-CoV Urbani / Binding of serum 37 to linear peptides of protein X5 of SARS-CoV Urbani / Binding of serum 37 to looped/cyclic peptides of protein X5 of SARS-CoV Urbani / Binding of serum 6 to linear peptides of protein N of SARS-CoV Urbani / Binding of serum 37 to linear peptides of protein N of SARS-CoV Urbani / Binding of serum 6 to linear peptide (PEPSCAN-ELISA) / Binding of serum 1a to looped/cyclic peptides of protein N of SARS-CoV Urbani / Binding of serum 1b to looped/cyclic peptides of protein N of SARS-CoV Urbani / Binding of serum 2 to looped/cyclic peptides of protein N of SARS-CoV Urbani / Binding of serum 6 to looped/cyclic peptides of protein N of SARS-CoV Urbani / Binding of serum 37 to looped/cyclic peptides of protein N of SARS-CoV Urbani / Binding of serum 62 to looped/cyclic peptides of protein N of SARS-CoV Urbani / Binding of serum London to looped/cyclic peptides of protein N of SARS-CoV Urbani / Binding of serum SARS-green to looped/cyclic peptides of protein N of SARS-CoV Urbani: unit not given here

Row | Sequence | Control Serum Blood-Bank Looped peptides [1] | Control serum Blood-bank linear peptides [1] | Control serum LUMC linear peptides [1] | Control serum LUMC looped peptides [1] | Binding of a rabbit serum to linear peptides of protein N of SARS-CoV Urbani (Rabbit serum linear peptides) [2] | Binding of a rabbit serum to looped/cyclic peptides of protein N of SARS-CoV Urbani (Rabbit serum looped peptides) [2] | Binding of antibody 03-018 to linear peptides of the N protein of SARS-CoV Urbani [3] | Binding of antibody 03-018 to looped/cyclic peptides of the N protein of SARS-CoV Urbani [3] | Binding of serum 1a to linear peptides of protein N of SARS-CoV Urbani [4] | Binding of serum 1a to looped/cyclic peptides of protein N of SARS-CoV Urbani [4] | Binding of serum 1b to linear peptides of protein N of SARS-CoV Urbani [4] | Binding of serum 1b to looped/cyclic peptides of protein N of SARS-CoV Urbani [4] | Binding of serum 2 to linear peptides of protein N of SARS-CoV Urbani [4] | Binding of serum 2 to looped/cyclic peptides of protein N of SARS-CoV Urbani [4] | Binding of serum 6 to looped/cyclic peptides of protein N of SARS-CoV Urbani [4] | Binding of serum 37 to looped/cyclic peptides of protein N of SARS-CoV Urbani [4] | Binding of serum 62 to looped/cyclic peptides of protein N of SARS-CoV Urbani [4] | Binding of serum London to looped/cyclic peptides of protein N of SARS-CoV Urbani [4] | Binding of serum SARS-green to looped/cyclic peptides of protein N of SARS-CoV Urbani [4] | Binding of serum SARS-yellow to looped/cyclic peptides of protein N of SARS-CoV Urbani [4] | further results
1 | KQPTVTLLPAADMDD | 0.4 | 0.7 | 0.7 | 0.3 | 0.1 | 0.1 | 0.1 | 0.2 | 0.3 | 0.3 | 0.2 | 0.2 | 0.2 | 0.2 | 0.0 | 0.4 | 0.3 | 0.2 | 0.6 | 0.3 | Binding of serum 6 to linear peptides of protein N of SARS-CoV Urbani [4]: 0.2; Binding of serum 37 to linear peptides of protein N of SARS-CoV Urbani [4]: 1.2; Binding of serum 62 to linear peptides of protein N of SARS-CoV Urbani [4]: 0.8; Binding of serum London to linear peptides of protein N of SARS-CoV Urbani [4]: 0.6; Binding of serum SARS-green to linear peptides of protein N of SARS-CoV Urbani [4]: 2.4; Binding of serum SARS-yellow to linear peptides of protein N of SARS-CoV Urbani [4]: 1.1
2 | KQYNVTQAFGRRGPE |  |  |  |  |  |  | 0.1 | 0.1 |  | 0.0 |  | 0.0 |  | 0.1 | 0.2 | 0.0 | 0.0 | 0.2 | 0.4 | 0.0 | Binding of Control Serum Blood-Bank to Looped peptides [1]: 0.5; Binding of Control serum Blood-bank to linear peptides [1]: 0.6; Binding of Control serum LUMC to linear peptides [1]: 0.7; Binding of Control serum LUMC to looped peptides [1]: 0.5; Recognition of the peptide by the rabbit serum [2]: recognized; Binding of serum 1a to linear peptide (PEPSCAN-ELISA) [4]: 0.3; Binding of serum 1b to linear peptide (PEPSCAN-ELISA) [4]: 0.1; Binding of serum 2 to linear peptide (PEPSCAN-ELISA) [4]: 0.1; Binding of serum 6 to linear peptide (PEPSCAN-ELISA) [4]: 0.2; Binding of serum 37 to linear peptide (PEPSCAN-ELISA) [4]: 0.6; Binding of serum 62 to linear peptide (PEPSCAN-ELISA) [4]: 0.7; Binding of serum London to linear peptide (PEPSCAN-ELISA) [4]: 0.5; Binding of serum SARS-green to linear peptide (PEPSCAN-ELISA) [4]: 0.3; Binding of serum SARS-yellow to linear peptide (PEPSCAN-ELISA) [4]: 0.6
3 | KSAAEASKKPRQKRT |  |  |  |  | 0.1 | 0.2 | 0.1 | 0.1 |  | 0.2 |  | 0.1 |  | 0.2 | 0.1 | 0.4 | 0.2 | 0.3 | 0.1 | 0.1 | Binding of Control Serum Blood-Bank to Looped peptides [1]: 0.4; Binding of Control serum Blood-bank to linear peptides [1]: 0.7; Binding of Control serum LUMC to linear peptides [1]: 0.7; Binding of Control serum LUMC to looped peptides [1]: 0.4; Recognition of the peptide by sera of SARS-CoV infected individuals, and form (linear, looped/cyclic) in which it is recognized [4]: recognized in linear form
4 | KTFPPTEPKKDKKKK | 0.3 | 0.6 | 0.7 | 0.3 | 0.1 | 0.1 | 0.1 | 0.2 | 0.2 | 0.2 | 0.1 | 0.1 | 0.4 | 0.2 | 0.0 | 0.4 | 0.2 | 0.2 | 0.0 | 0.2 | Binding of serum 6 to linear peptides of protein N of SARS-CoV Urbani [4]: 0.2; Binding of serum 37 to linear peptides of protein N of SARS-CoV Urbani [4]: 0.8; Binding of serum 62 to linear peptides of protein N of SARS-CoV Urbani [4]: 0.6; Binding of serum London to linear peptides of protein N of SARS-CoV Urbani [4]: 0.4; Binding of serum SARS-green to linear peptides of protein N of SARS-CoV Urbani [4]: 0.1; Binding of serum SARS-yellow to linear peptides of protein N of SARS-CoV Urbani [4]: 0.8
